Reference: patent publication US11717553B2, “Combined plant extract for getting rid of mites and acne and preparation method and use thereof” (Nanjing Institute for Comprehensive Utilization of Wild …, priority 2020, dated 2023)
Where two headings read alike, the source gives them in different places.

Experiments:
human follicle mites [1] = test: In vitro experiment of mite elimination by combined plant extracts and single plant extracts (Example 4); details: 4 h
Text: (§1) Mites for experiments: follicle mites were obtained with a transparent tape sticking overnight. Specifically, subjects were required to clean their face thoroughly and stick a transparent tape which is 6 cm long and 1.5 cm wide to their foreheads, cheeks, noses, chins or other sites before going to bed. The tape was peeled off the next day, stuck on a glass slide and observed under a microscope.
Preparation of samples to be tested: a total of 7 samples of combined plant extracts and single plant extracts prepared according to Examples 1-3 and Comparative Examples 1-4, were sequentially denoted as samples no. 1-7 to be tested, and diluted with deionized water to a 25% concentration for later use.
1.2.1 Test groups: the test solutions were denoted as no. 1-7 sequentially, a 2% metronidazole solution was used as the positive control group, and liquid paraffin was used as the blank control group. 10 follicle mites were included in each group. […]
(§2) 1.2.2 Observation method: a micropipette was used to draw 200 μL of an agent solution and drop it on a slide. […] The tapes where follicle mites were detected were stuck on the slides to allow sufficient contact of the solution and the mites. […]
(§3) 1.2.3 Determination of death: the mites whose limbs or feet were immobile under a 400× microscope for 1 min were initially determined to be dead, and those who still immobile after 30 min were diagnosed as dead. […]

human follicle mites [2] = details: 4 h
Text: as §1
Preparation of samples to be tested: The combined plant extract prepared according to Example 1 was diluted with deionized water to obtain final concentrations of 100%, 50%, 25%, 12.5%, 6.25%, and 3.125% for later use.
1.2.1 Test groups: the combined plant extract to be tested was divided into 6 concentration gradient groups, a 2% metronidazole solution was used as the positive control group, and liquid paraffin was used as the blank control group. 10 follicle mites were included in each group. […]
as §2, §3

For `Cc1ncc([N+](=O)[O-])n1CCO` [Metronidazole, metronidazole], which “Corrected mortality rate (%) ± SE” value (human follicle mites [1]) is on record?
The value was 56.73 ± 4.07%.

And the “Corrected mortality rate (%) ± SE” value (human follicle mites [2])?
Its value is 54.66 ± 4.38%.
